Laboratory results reported in patent US20030026797A1, “Antifungal compositions” (priority 1996, published 2003).

Legend:
[1] = system: conidia of Fusarium oxysporum; assay: Survival of hot-water treated conidia of Fusarium oxysporum (plating on PDA-V agar); assay type: cell-based; conditions: 2 hrs at 43.5° C., 25,000 conidia per ml, no enzymes
Description: Viability of conidia of Fusarium oxysporum was measured at the start and at the end of the hot-water treatment. (2 hrs at 43.5° C.).
Five samples of 1 ml were mixed each with 20 ml of PDA containing 50 microgram/ml vendarcin (PDA-V) and poured into petri dishes of 14 cm diameter. Colonies were counted after 2 and 5 days at 25° C.
In the presence of natamycin and fungal cell wall degrading enzymes, 2 samples of 25 ml were taken from the bath at the beginning and the end of the treatment. These samples were centrifuged at 3,000*g for 15 min. The pellet containing the conidia was washed several times with sterile water to remove the antifungal agents, followed by centrifugation and dilution to allow for plating on PDA-V as described above. […]
Chitinase and β-1,3-glucanase respectively were added to the hot-water bath to a final activity of 36,000 and 10,000 units per liter. Units are as defined in Example 1.

Rhizoctonia = assay: Soil treatment against Rhizoctonia infection of flower bulbs (visual inspection after 4 weeks); assay type: in vivo; conditions: 18° C.
Description: Bulbs were planted in pots at standard soil at a depth of 20 cm. Oat borne sclerotia of Rhizoctonia were mixed through the soil to infect the bulbs. Temperature was maintained at 18° C. during the experiment. Experiments were replicated 5 fold. Natamycin and fungal cell wall degrading enzymes were mixed as powders through the soil prior to infection with Rhizoctonia. Natamycin was tested at final concentrations of 1000, 500 and 100 mg/kg. Chitinase and β-1,3-glucanase was mixed through the soil to a final activity of 3600 and 1000 units per kg of soil. After 4 weeks bulbs were monitored for fungal infection by means of visual inspection.

For `C[C@@H]1C/C=C/C=C/C=C/C=C/[C@H](O[C@@H]2O[C@H](C)[C@@H](O)[C@H](N)[C@@H]2O)C[C@@H]2O[C@](O)(C[C@@H](O)C[C@H]3O[C@@H]3/C=C/C(=O)O1)C[C@H](O)[C@H]2C(=O)O` [Natamycin, natamycin], the “Surviving conidia per ml” value ([1]; natamycin 100 mg/L in hot-water bath) was 70 per ml, the “Surviving conidia per ml” value ([1]; natamycin 200 mg/L in hot-water bath) was 50 per ml and the “Surviving conidia per ml” value ([1]; natamycin 300 mg/L in hot-water bath) was less than 1 per ml. For the same molecule, the “Percentage of bulbs showing fungal infection” value (shortened to “Percentage”) (Rhizoctonia; natamycin 100 mg/kg soil) was 50%, the “Percentage” value (Rhizoctonia; natamycin 500 mg/kg soil) was 42% and the “Percentage” value (Rhizoctonia; natamycin 1000 mg/kg soil) was 19%.
